Test results from patent publication US11530218B2, “Spiro compounds as inhibitors of KRAS” (Incyte Corporation, priority 2020, dated 2022).

Target: KRAS G12D (Homo sapiens, UniProt P01116, G12D)
Assay: KRAS G12D GDP-GTP exchange assay (bodipy-GDP/GppNHp, SOS1)
Assay type: biochemical
Settings: bodipy loaded KRAS G12D 2.5 nM, 4 hours incubation after GppNHp-SOS1; read-out: G12D_exchange (KRAS_G12D exchange assay IC50)
Description: The inhibitor potency of the exemplified compounds was determined in a fluorescence based guanine nucleotide exchange assay, which measures the exchange of bodipy-GDP (fluorescently labeled GDP) for GppNHp (Non-hydrolyzable GTP analog) to generate the active state of KRAS in the presence of SOS1 (guanine nucleotide exchange factor). Inhibitors were serially diluted in DMSO and a volume of 0.1 μL was transferred to the wells of a black low volume 384-well plate. 5 μL/well volume of bodipy-loaded KRAS G12C diluted to 5 nM in assay buffer (25 mM Hepes pH 7.5, 50 mM NaCl, 10 mM MgCl2 and 0.01% Brij-35) was added to the plate and pre-incubated with inhibitor for 2 hours at ambient temperature. Appropriate controls (enzyme with no inhibitor or with a G12C inhibitor (AMG-510)) were included on the plate. The exchange was initiated by the addition of a 5 μL/well volume containing 1 mM GppNHp and 300 nM SOS1 in assay buffer. The 10 μL/well reaction concentration of the bodipy-loaded KRAS G12C, GppNHp, and SOS1 were 2.5 nM, 500 uM, and 150 nM, respectively. The reaction plates were incubated at ambient temperature for 2 hours, a time estimated for complete GDP-GTP exchange in the absence of inhibitor. For the KRAS G12D and G12V mutants, similar guanine nucleotide exchange assays were used with 2.5 nM as final concentration for the bodipy loaded KRAS proteins and with 4 hours and 3 hours incubation after adding GppNHp-SOS1 mixture for G12D and G12V respectively. A cyclic peptide described to selectively bind G12D mutant (Sakamoto et al., BBRC 484.3 (2017), 605-611) or internal compounds with confirmed binding were used as positive controls in the assay plates. Fluorescence intensities were measured on a PheraStar plate reader instrument (BMG Labtech) with excitation at 485 nm and emission at 520 nm.
Either GraphPad prism or XLfit was used to analyze the data. The IC50 values were derived by fitting the data to a four parameter logistic equation producing a sigmoidal dose-response curve with a variable Hill coefficient. Prism equation: Y=Bottom+(Top−Bottom)/(1+10^((Log IC50−X)*Hill slope)); XLfit equation: Y=(A+((B−A)/(1+((X/C)^D)))) where X is the logarithm of inhibitor concentration and Y is the response.

Chain of KRAS G12D (P01116 1-188 isoform P01116-2 G12D): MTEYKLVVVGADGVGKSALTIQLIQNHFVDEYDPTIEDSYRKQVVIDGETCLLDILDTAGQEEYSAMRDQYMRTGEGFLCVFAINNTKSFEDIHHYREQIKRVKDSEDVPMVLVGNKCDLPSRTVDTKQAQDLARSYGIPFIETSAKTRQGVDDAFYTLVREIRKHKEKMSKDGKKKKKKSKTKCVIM

Compound	IC50 [nM]
Cc1cc2c3c(c(N4CC(N(C)C)C4)nc2c(F)c1-c1cc(O)cc2ccccc12)NC(=O)C31CCCNC1 (single isomer, unassigned) [Example 19b, 4′-(3-(dimethylamino)azetidin-1-yl)-6′-fluoro-7′-(3-hydroxynaphthalen-1-yl)-8′-methylspiro[piperidine-3,1′-pyrrolo[2,3-c]quinolin]-2′(3′H)-one]	1000 to 5000
CN(C)C1CN(c2nc3c(F)c(-c4cc(O)cc5ccc(Cl)cc45)c(Cl)cc3c3c2NC(=O)C32CCCNC2)C1 (single isomer, unassigned) [Example 20b, 8′-chloro-7′-(7-chloro-3-hydroxynaphthalen-1-yl)-4′-(3-(dimethylamino)azetidin-1-yl)-6′-fluorospiro[piperidine-3,1′-pyrrolo[2,3-c]quinolin]-2′(3′H)-one]	1000 to 5000
CN(C)C1CN(c2nc3c(F)c(-c4cc(O)cc5ccccc45)c(Cl)cc3c3c2NC(=O)C32CC3CC2CN3)C1 (single isomer, unassigned) [Example 21b, 8′-chloro-4′-(3-(dimethylamino)azetidin-1-yl)-6′-fluoro-7′-(3-hydroxynaphthalen-1-yl)-5-azaspiro[bicyclo[2.2.1]heptane-2,1′-pyrrolo[2,3-c]quinolin]-2′(3′H)-one]	1000 to 5000
CN(C)C1CN(c2nc3c(F)c(-c4cc(O)cc5ccccc45)c(CCCC#N)cc3c3c2NC(=O)C32CCCNC2)C1 (single isomer, unassigned) [Example 23b, 4-(4′-(3-(dimethylamino)azetidin-1-yl)-6′-fluoro-7′-(3-hydroxynaphthalen-1-yl)-2′-oxo-2′,3′-dihydrospiro[piperidine-3,1′-pyrrolo[2,3-c]quinolin]-8′-yl)butanenitrile]	100 to 1000
CN(C)C1CN(c2nc3c(F)c(-c4cc(O)cc5ccccc45)c(CC#N)cc3c3c2NC(=O)C32CCCNC2)C1 (single isomer, unassigned) [Example 24a, 2-(4′-(3-(dimethylamino)azetidin-1-yl)-6′-fluoro-7′-(3-hydroxynaphthalen-1-yl)-2′-oxo-2′,3′-dihydrospiro[piperidine-3,1′-pyrrolo[2,3-c]quinolin]-8′-yl)acetonitrile]	1000 to 5000
CN(C)C1CN(c2nc3c(F)c(-c4cc(O)cc5ccccc45)c(CCC#N)cc3c3c2NC(=O)C32CCCNC2)C1 (single isomer, unassigned) [Example 25b, 3-(4′-(3-(dimethylamino)azetidin-1-yl)-6′-fluoro-7′-(3-hydroxynaphthalen-1-yl)-2′-oxo-2′,3′-dihydrospiro[piperidine-3,1′-pyrrolo[2,3-c]quinolin]-8′-yl)propanenitrile]	1000 to 5000
CN(C)C1CN(c2nc3c(F)c(-c4cc(O)cc5ccccc45)c(Cc4ccccc4Cl)cc3c3c2NC(=O)C32CCCNC2)C1 (single isomer, unassigned) [Example 26b, 8′-(2-chlorobenzyl)-4′-(3-(dimethylamino)azetidin-1-yl)-6′-fluoro-7′-(3-hydroxynaphthalen-1-yl)spiro[piperidine-3,1′-pyrrolo[2,3-c]quinolin]-2′(3′H)-one]	1000 to 5000
CN(C)C1CN(c2nc3c(F)c(-c4cc(O)cc5ccccc45)c(Cc4ccccc4C#N)cc3c3c2NC(=O)C32CCCNC2)C1 (single isomer, unassigned) [Example 27b, 2-((4′-(3-(dimethylamino)azetidin-1-yl)-6′-fluoro-7′-(3-hydroxynaphthalen-1-yl)-2′-oxo-2′,3′-dihydrospiro[piperidine-3,1′-pyrrolo[2,3-c]quinolin]-8′-yl)methyl)benzonitrile]	1000 to 5000
CN(C)C1CN(c2nc3c(F)c(-c4cc(O)cc5ccccc45)c(CCCC#N)cc3c3c2NCC32CCCNC2)C1 (single isomer, unassigned) [Example 28b, 4-(4′-(3-(dimethylamino)azetidin-1-yl)-6′-fluoro-7′-(3-hydroxynaphthalen-1-yl)-2′,3′-dihydrospiro[piperidine-3,1′-pyrrolo[2,3-c]quinolin]-8′-yl)butanenitrile]	1000 to 5000
